Source: patent US11446354B2, “Method of treatment” (Hexima Limited, priority 2014, dated 2022)
Where two headings read alike, the source gives them in different places.

Key:
[1] = system: Trichophyton rubrum, T. interdigitale, Microsporum fulvum and C. albicans; assay: Inhibition assays summarised across the range of fungal pathogens; assay type: cell-based; conditions: summary of Table 3
Procedure: (§1) The inhibitory effects of the plant defensins on the growth of Trichophyton rubrum, T. interdigitale, Microsporum fulvum and C. albicans (obtained from the National Mycology Reference Centre, South Australia Pathology at the Women's and Children's Hospital, Adelaide, Australia) are measured essentially as described by Broekaert et al. (1990) FEMS Microbiol Lett 69:55-59. Spores of T. rubrum, T. interdigitale and M. fulvum are isolated from sporulating fungus growing on 1⁄2 strength Sabouraud dextrose agar (SDA). Spores were removed from the plates by the addition of 1⁄2 strength potato dextrose broth (PDB). C. albicans cells are grown in Yeast Peptone Broth (YPD) for 16 h. Spore and cell concentrations are measured using a hemocytometer. Antifungal assays are conducted in 96 well microtitre plates essentially as herein described. Wells are loaded with 20 μL of filter sterilized (0.22 μm syringe filter, Millipore) defensin (10× stock for each final concentration) or water and 80 μL of 5×10^4 spores/mL (T. rubrum, T, interdigitale, M. fulvum) or 5,000 cells/mL (C. albicans) in 1⁄2 strength PDB. The plates are incubated at 30° C. Fungal growth is assayed by measuring optical density at 595 nm ([…]) using a microtitre plate reader (SpectraMax Pro M2; Molecular Devices. Growth is allowed to proceed until the optical density (OD) of the fungus in the absence of any test defensin reached an OD of 0.2. Each test is performed in duplicate.

[2] = system: Human monocytic lymphoma (U937) cells; assay type: cell-based
Procedure: Human monocytic lymphoma (U937) cells are cultured in RPMI-1640 medium. All culture media are supplemented with 5-10% v/v fetal calf serum, 100 U/ml of penicillin, and 100 μg/ml of streptomycin. Cell lines are cultured at 37° C. in a humidified atmosphere containing 5% v/v CO2. Adherent cell lines are detached from the flask by adding a mixture containing 0.25% v/v trypsin and […]. A flow cytometry-based propidium iodide (PI) uptake assay is performed to analyze the ability of plant defensins to permeabilize U937 cells (essentially as described in Poon et al, 2014). Briefly, cells are suspended to 1×10^6 cells/ml in 0.1% v/v BSA/RPMI-1640 and incubated with plant defensins (10 μM) at 37° C. for 30 min. Samples are added to PBS containing a final concentration of 1 μg/ml PI and placed on ice. Samples are then analyzed immediately using the BD FACSCanto II Flow Cytometer and BD FACSDiva software v6.1.1. The resultant flow cytometry data is analyzed using FlowJo software v8.8.6. Cells are gated appropriately based on forward scatter and side scatter and cell permeabilization is defined by PI-positive staining.

Escherichia coli = assay: Inhibition of the growth of Escherichia coli; assay type: cell-based; conditions: 0.1625-10 μM, 18 hours, 37° C.
Procedure: A single E. coli colony was used to inoculate 5 ml of Luria-Bertani media and grown overnight at 37° C. The following day, the optical density of the culture was measured and the E. coli diluted to an optical density at 600 nm (OD600) of 0.01 in Mueller-Hinton Broth. Diluted E. coli were added to 96-well plates with defensins at concentrations of 10 μM, 5 μM, 2.5 μM, 1.25 μM, 0.625 μM, 0.3125 μM or 0.1625 μM. Plates were read at OD595 to obtain time zero data points. Plates were incubated at 37° C. for 18 hours before reading again at OD595 to assess the amount of E. coli growth.

[3] = assay type: in vitro ADME, Human; conditions: for Cumulative amount through nail as percent (of applied dose): human
Procedure: Penetration of NaD1 through human nails was measured according to the method of Hui et al. (2002) J Pharm Sci 91(1):189-195. Human toenails were obtained from ScienceCare (USA) and washed with phosphate buffered saline (details, PBS) before being placed on a kimwipe that had been soaked in PBS for 3 h to rehydrate the nail. The nail was then placed in a plastic nail adapter with a dosing area of 0.5×0.5 cm (Permagear, USA) and a cotton bud wetted with 75 microlitres of PBS was placed in the receptor chamber in contact with the underside of the nail.
The cotton bud in contact with the underside of the nail was removed after 24 h and every 24 h following. Protein that had passed through the nail was recovered from the cotton bud by washing twice with 500 μL of 0.1% v/v trifluoroacetic acid. Recovered protein was quantified using RP-HPLC.

Microsporum fulvum = assay: Antifungal growth inhibition assay, Microsporum fulvum; assay type: cell-based; conditions: summary of Table 3
Procedure: as §1, with “Wells are loaded with 20 μL of filter sterilized (0.22 μm syringe filter, Millipore) defensin (10× stock for each final concentration) or water and 80 μL of 5×10^4 spores/mL (T. rubrum, T, interdigitale, M. fulvum) or 5,000 cells/mL (C. albicans) in 1⁄2 strength PDB. The plates are incubated at 30° C.” left out

C. albicans = assay: Antifungal growth inhibition assay, C. albicans; assay type: cell-based, Candida albicans; conditions: summary of Table 3
Procedure: as §1, with “Wells are loaded with 20 μL of filter sterilized (0.22 μm syringe filter, Millipore) defensin (10× stock for each final concentration) or water and 80 μL of 5×10^4 spores/mL (T. rubrum, T, interdigitale, M. fulvum) or 5,000 cells/mL (C. albicans) in 1⁄2 strength PDB. The plates are incubated at 30° C.” left out

HXL009: Class I plant defensin from Zea mays, SEQ ID NO: 9 (TVCMRHNNFYHGPCMSNKDCANSCVQHNLGVGGYCRGKIPFNKECMCTFEC; HXL009 Zea mays)
Antifungal activity across the range of fungal pathogens, result in words [1]: did not display any activity at the concentrations tested | U937 cells permeabilized (PI-positive) [2]: less than 2%

HXL005: Class I plant defensin from Taraxcum kok-saghyz, SEQ ID NO: 8 (KMCQTTSHAFSCVNDSGCSGSCEKQGFASGKCDGVRRRCTCYKKC; HXL005 Taraxcum kok-saghyz)
Antifungal activity across the range of fungal pathogens, result in words [1]: most effective plant defensins across the range of fungal pathogens | U937 cells permeabilized (PI-positive) [2]: ~25%

LL37: human antimicrobial peptide LL37 used as a control (LLGDFFRKSKEKIGKEFKRIVQRIKDFLRNLVPRTES; Antibacterial peptide LL-37; UniProt P49913 134-170, looked up) [reference compound]
Growth of E. coli in the presence of defensin (Escherichia coli): inhibited the growth of E. coli in a concentration dependent manner

HXL013: Class I plant defensin from Glycine max, SEQ ID NO: 11 (KDCLTRRHGFQGRCLFDRQCAHVCRSDGFIGGQCRGPLRKCFCSRPC; HXL013 Glycine max)
Antifungal activity across the range of fungal pathogens, result in words [1]: intermediate activity across the range of pathogens | U937 cells permeabilized (PI-positive) [2]: 5%

HXL015: Class I plant defensin from Oryza sativa, SEQ ID NO: 12 (RHCLSQSHRFKGMCVSSNNCANVCRTESFPDGECKSHGLERKCFCKKVC; HXL015 Oryza sativa)
Antifungal activity across the range of fungal pathogens, result in words [1]: intermediate activity across the range of pathogens

HXL004: Class I plant defensin from Nicotiana benthamiana, SEQ ID NO: 7 (RTCESQSHRFKGLCFSRSNCASVCHTEGFNGGHCRGFRRRCFCTRHC; HXL004 Nicotiana benthamiana)
Antifungal activity across the range of fungal pathogens, result in words [1]: intermediate activity across the range of pathogens | Growth of E. coli in the presence of defensin (Escherichia coli): inhibited the growth of E. coli in a concentration dependent manner | U937 cells permeabilized (PI-positive) [2]: 13% | Nail penetration, result in words [3]: able to penetrate nails faster and more effectively than the active ingredients of current topical onychomycosis therapies

HXL012: Class I plant defensin from Amaranthus retroflexus, SEQ ID NO: 10 (RMCKAPSKLFRGMCGIRDSNCDSVCRAEGMAAGDCHGLRRRCICSRPC; HXL012 Amaranthus retroflexus)
Antifungal activity across the range of fungal pathogens, result in words [1]: intermediate activity across the range of pathogens | U937 cells permeabilized (PI-positive) [2]: less than 2% | Nail penetration, result in words [3]: did not penetrate the nail

OB1OCc2cc(F)ccc21 [Tavaborole]
Cumulative amount through nail as percent (of applied dose) ([3]; 3 day, 10 %): 2.0% | Cumulative amount through nail as percent (of applied dose) ([3]; 6 day, 10 %): 3.7% | Cumulative amount through nail as percent (of applied dose) ([3]; 9 day, 10 %): 6.8% | Cumulative amount through nail as percent (of applied dose) ([3]; 12 day, 10 % solution): 10.7% | Cumulative amount through nail as percent (of applied dose) ([3]; 15 day, 10 % solution): 14.9%

HXP4: Artificial defensin variant, Loop1B of a Class I defensin replaces that of the Solanaceous Class II defensin, SEQ ID NO: 21 (RECKTESHRFKGPCITKPPCRKACISEKFTDGHCSKILRRCLCTKPC; HXP4)
U937 cells permeabilized (PI-positive) [2]: 13%

Cc1cc(C2CCCCC2)n(O)c(=O)c1 [Ciclopirox]
Cumulative amount through nail as percent (of applied dose) ([3]; 3 day, 10 %): 0.03% | Cumulative amount through nail as percent (of applied dose) ([3]; 6 day, 10 %): 0.03% | Cumulative amount through nail as percent (of applied dose) ([3]; 9 day, 10 %): 0.04% | Cumulative amount through nail as percent (of applied dose) ([3]; 12 day, 10 % solution): 0.05% | Cumulative amount through nail as percent (of applied dose) ([3]; 15 day, 10 % solution): 0.06%

NaD1: Solanaceous Class II plant defensin from Nicotiana alata, SEQ ID NO: 18 (RECKTESNTFPGICITKPPCRKACISEKFTDGHCSKILRRCLCTKPC; NaD1 Nicotiana alata) [reference compound]
Growth of E. coli in the presence of defensin (Escherichia coli): did not inhibit growth of E. coli at the concentrations tested | U937 cells permeabilized (PI-positive) [2]: 33% | Nail penetration, result in words [3]: able to penetrate nails faster and more effectively than the active ingredients of current topical onychomycosis therapies

C=C1CCN([C@H](C)[C@](O)(Cn2cncn2)c2ccc(F)cc2F)CC1 [Efinaconazole]
Cumulative amount through nail as percent (of applied dose) ([3]; 1 day, 10 % solution): 0.2% | Cumulative amount through nail as percent (of applied dose) ([3]; 2 day, 10 % solution): 0.4% | Cumulative amount through nail as percent (of applied dose) ([3]; 3 day, 10 %): 0.7% | Cumulative amount through nail as percent (of applied dose) ([3]; 4 day, 10 % solution): 0.8% | Cumulative amount through nail as percent (of applied dose) ([3]; 6 day, 10 %): 1.3% | Cumulative amount through nail as percent (of applied dose) ([3]; 9 day, 10 %): 2.0% | Cumulative amount through nail as percent (of applied dose) ([3]; 12 day, 10 % solution): 2.7% | Cumulative amount through nail as percent (of applied dose) ([3]; 15 day, 10 % solution): 3.3%

HXL001: Class I plant defensin from Zea mays, SEQ ID NO: 4 (RHCLSQSHRFKGLCMSSNNCANVCQTENFPGGECKAEGATRKCFCKKIC; HXL001 Zea mays)
Antifungal activity across the range of fungal pathogens, result in words [1]: did not display any activity at the concentrations tested | U937 cells permeabilized (PI-positive) [2]: less than 2%

HXL035: Class I plant defensin from Picramnia pentandra, SEQ ID NO: 2 (KVCTKPSKFFKGLCGFDRDCTVACKKEGLASGFCQNKGFFNVVCVCRKPC; HXL035 Picramnia pentandra)
Antifungal activity across the range of fungal pathogens, result in words [1]: most effective plant defensins across the range of fungal pathogens

HXL002: Class I plant defensin from Triticum aestivum, SEQ ID NO: 5 (RDCLSQSHKFKGACLSSSNCAAVCRTENFPDGECHTHNFARKCFCKRAC; HXL002 Triticum aestivum)
Inhibition of M. fulvum, result in words (Microsporum fulvum): very poor inhibitors | U937 cells permeabilized (PI-positive) [2]: less than 2% | Inhibition of C. albicans, result in words (C. albicans): very poor inhibitors
